The term pEC50 denotes the EC50 on a negative log10 scale, so that one unit is a factor of ten. Higher therefore signals a low EC50.

The test deals with T1, IDO1 (Homo sapiens, UniProt P14902).
T1 construct: HeLa cells were treated with a test compound in the presence of IFNγ, which induces IDO1 expression; host or cells: H1-HeLa cells, IDO1 induced with IFN-gamma
Briefly: Cell-Based (HeLa) Assay for Measurement of IDO1 Inhibition. Particulars: H1-HeLa cells, IDO1 induced by IFNγ, 48 hour incubation, kynurenine in supernatant (absorbance at 480 nm); geometric mean of a minimum of four determinations. The procedure:
Example 509. Cell-Based (HeLa) Assay for Measurement of IDO1 Inhibition
To measure IDO1 inhibition in tissue culture, HeLa cells were treated with a test compound in the presence of IFNγ, which induces IDO1 expression. Following incubation, cell supernatants were assayed for kynurenine levels, an indicator of IDO1 activity.
H1-HeLa cells (ATCC # CRL-1958) were seeded in 384-well plates (Greiner #82051-282) at a volume of 50 µL/well in DMEM (Corning #15-018-CM) supplemented with 10% FBS (Corning #35-011-CV) and 1% P/S/G (Corning #30-009-CL) at a density of 1,250 cells/well and incubated overnight at 37° C., 5% CO2/100% humidity. The following day, the test compounds were added in DMSO (0.5% final) at various concentrations, and IDO1 was inducibly expressed by the addition of 50 uL/well of 50 ng/mL of INFγ (Peprotech #300-02) in cell plating media. As a positive control, 50 uL of the cell plating media without IFNγ was added to several wells. Following a 48 hour incubation, the plates were spun down at 1,200 RPM for 5 min at 10° C. […]
Data in Table 1 were normalized based on positive (−IFNγ) and negative (+IFNγ) controls and EC50 values were calculated from the fit of the dose-response curves to a four-parameter equation. […]

pEC50: −log10 of the molar value.

T1 sequence (P14902 whole entry): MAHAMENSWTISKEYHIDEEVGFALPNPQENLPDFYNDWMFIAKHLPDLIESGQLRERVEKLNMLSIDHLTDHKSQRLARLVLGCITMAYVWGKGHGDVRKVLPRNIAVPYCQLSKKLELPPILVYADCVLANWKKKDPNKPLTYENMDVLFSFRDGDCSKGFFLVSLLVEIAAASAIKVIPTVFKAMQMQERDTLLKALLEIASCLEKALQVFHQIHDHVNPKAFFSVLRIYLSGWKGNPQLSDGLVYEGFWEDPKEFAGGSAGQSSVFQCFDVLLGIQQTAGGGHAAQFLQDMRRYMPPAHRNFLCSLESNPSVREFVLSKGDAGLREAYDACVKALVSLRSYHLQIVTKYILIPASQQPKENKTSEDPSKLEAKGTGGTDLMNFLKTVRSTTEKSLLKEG

Take “N-(4-chlorophenyl)-5-(3-(2,3-difluorophenyl)imidazo[1,5-a]pyridin-8-yl)-2-methylnicotinamide [Example 61]”: the pEC50 was 7.52.

On to `Cc1ncc(-c2cccn3c(C4CCOC4)ncc23)cc1C(=O)Nc1ccc(F)cc1` (centres unmarked) [Example 76, N-(4-fluorophenyl)-2-methyl-5-(3-(tetrahydrofuran-3-yl)imidazo[1,5-a]pyridin-8-yl)nicotinamide], for which the pEC50 was 5.30.
